Publication PMC5843811, “^44Sc for labeling of DOTA- and NODAGA-functionalized peptides: preclinical in vitro and in vivo investigations” (EJNMMI Radiopharmacy and Chemistry, 2016)

Legend:
[1] = Biodistribution in AR42J tumor-bearing mice; settings: female, CD-1 nude (athymic nude), mouse, iv, total radioactivity, i.v. ~5 MBq (~1 nmol), mean ± SD, n=3; for tissue to tissue ratio at 0.5 h / tissue uptake at 0.5 h: 30 min p.i.; for tissue to tissue ratio at 2 h / tissue uptake at 2 h: 2 h p.i.; for tissue to tissue ratio at 5 h / tissue uptake at 5 h: 5 h p.i.; for tissue uptake at 0.5 h / tissue uptake at 2 h / tissue uptake at 5 h: Biodistribution
Method: Female athymic nude mice (CD-1 nude), age 5–6 weeks, were obtained from Charles River Laboratories, Sulzfeld, Germany. U87MG cells and AR42J-cells were suspended in PBS (5 × 10^6 cells in 100 μL) and subcutaneously inoculated on each shoulder. Two to three weeks later, when the tumor reached a size of about 300–500 mm^3, the mice were used for the in vivo studies.
Biodistribution studies were performed with U87MG tumor and AR42J tumor-bearing mice 2 weeks after tumor cell inoculation. ^44Sc- and ^68Ga-labeled peptides (~5 MBq, ~1 nmol per mouse) were intravenously injected in a volume of 100–200 μL. Mice were sacrificed at 30 min, 2 h and 5 h after injection (p.i.) of the ^44Sc-labeled peptides. Mice which were injected with ^68Ga-labeled peptides were sacrificed at 30 min and 2 h p.i. Selected tissues and organs were collected, weighed, and counted for radioactivity using a γ-counter (Wallac Wizard 1480, Perkin Elmer). The results were listed as a percentage of the injected activity per gram of tissue mass (% IA/g), using counts of a defined volume of the original injection solution counted at the same time. The data were analyzed for significance using a two-way ANOVA test (Graph Pad Prism 6 software, version 6.05). A p-value of < 0.05 was considered statistically significant.

[2] = system: AR42J tumor-bearing mice; assay: PET/CT imaging of AR42J tumor-bearing mice; settings: 3 h after i.v. injection of ~10 MBq (~1 nmol; ^44Sc-NODAGA-NOC ~3 nmol), one or two mice
Method: A bench-top preclinical PET scanner (G8, Sofie Biosciences, California, U.S.A. and Perkin Elmer, Massachusetts, U.S.A.) was employed for the PET scans of the tumor-bearing mice. The energy window was set to 150–650 keV. Mice were injected intravenously with ^44Sc- or ^68Ga-labeled peptides (~10 MBq, ~1 nmol per mouse) in a volume of 100–200 μL. The PET scans were performed 3 h and 5 h after injection of the ^44Sc-labeled peptides and 3 h after injection of the ^68Ga-labeled peptides, using G8 acquisition software (version 2.0.0.10). All static PET scans lasted for 20 min. During the acquisition the mice were anesthetized by inhalation of a mixture of isoflurane and oxygen. The images were reconstructed with maximum-likelihood expectation maximization (MLEM). Gauss post-reconstruction filtering was performed using VivoQuant post-processing software (version 2.10, inviCRO Imaging Services and Software, Boston, U.S.A.).

[3] = AR42J tumor / blood, Tumor-to-blood ratio
[4] = AR42J tumor / kidneys, Tumor-to-kidney ratio
[5] = AR42J tumor / liver, Tumor-to-liver ratio

tissue to tissue ratio at 0.5 h [1, 3]: 5.23 ± 0.22
tissue to tissue ratio at 2 h [1, 3]: 50.3 ± 16.8
tissue to tissue ratio at 5 h [1, 3]: 78.6 ± 6.95
tissue to tissue ratio at 0.5 h [1, 4]: 0.8 ± 0.1
tissue to tissue ratio at 2 h [1, 4]: 1.22 ± 0.34
tissue to tissue ratio at 5 h [1, 4]: 0.87 ± 0.24
tissue to tissue ratio at 0.5 h [1, 5]: 8.13 ± 0.72
tissue to tissue ratio at 5 h [1, 5]: 11.6 ± 1.51
tissue uptake at 0.5 h ([1]; AR42J tumor): 9.9 ± 0.66 %ID/g
tissue uptake at 2 h ([1]; AR42J tumor): 10.2 ± 1.17 %ID/g
tissue uptake at 5 h ([1]; AR42J tumor): 10.8 ± 0.37 %ID/g
tissue uptake at 5 h ([1]; adrenals): 2.87 ± 0.95 %ID/g
tissue uptake at 0.5 h ([1]; blood): 1.89 ± 0.08 %ID/g
tissue uptake at 2 h ([1]; blood): 0.22 ± 0.06 %ID/g
tissue uptake at 5 h ([1]; blood): 0.14 ± 0.01 %ID/g
tissue uptake at 0.5 h ([1]; bone): 1.38 ± 0.17 %ID/g
tissue uptake at 5 h ([1]; bone): 0.46 ± 0.06 %ID/g
tissue uptake at 0.5 h ([1]; brain): 0.09 ± 0.01 %ID/g
tissue uptake at 5 h ([1]; brain): 0.06 ± 0.01 %ID/g
tissue uptake at 5 h ([1]; heart): 0.3 ± 0.04 %ID/g
tissue uptake at 0.5 h ([1]; intestines, 5 MBq per mouse): 0.74 ± 0.1 %ID/g
tissue uptake at 2 h ([1]; intestines): 0.29 ± 0.07 %ID/g
tissue uptake at 5 h ([1]; intestines): 0.38 ± 0.06 %ID/g
tissue uptake at 0.5 h ([1]; kidneys): 12.4 ± 1.41 %ID/g
tissue uptake at 2 h ([1]; kidneys): 8.64 ± 1.62 %ID/g
tissue uptake at 5 h ([1]; kidneys): 13 ± 2.98 %ID/g
tissue uptake at 0.5 h ([1]; liver): 1.22 ± 0.11 %ID/g
tissue uptake at 2 h ([1]; liver): 0.88 ± 0.15 %ID/g
tissue uptake at 5 h ([1]; liver): 0.94 ± 0.12 %ID/g
tissue uptake at 0.5 h ([1]; lung): 4.28 ± 0.03 %ID/g
tissue uptake at 2 h ([1]; lung): 1.19 ± 0.28 %ID/g
tissue uptake at 5 h ([1]; lung): 0.89 ± 0.14 %ID/g
tissue uptake at 0.5 h ([1]; muscle): 0.66 ± 0.08 %ID/g
tissue uptake at 5 h ([1]; muscle): 0.26 ± 0.07 %ID/g
tissue uptake at 0.5 h ([1]; pancreas, 5 MBq per mouse): 1.6 ± 0.12 %ID/g
tissue uptake at 2 h ([1]; pancreas, 5 MBq per mouse): 1.12 ± 0.07 %ID/g
tissue uptake at 5 h ([1]; pancreas, 5 MBq per mouse): 1.35 ± 0.29 %ID/g
tissue uptake at 0.5 h ([1]; spleen): 0.91 ± 0.2 %ID/g
tissue uptake at 2 h ([1]; spleen): 0.38 ± 0.05 %ID/g
tissue uptake at 5 h ([1]; spleen): 0.47 ± 0.05 %ID/g
tissue uptake at 0.5 h ([1]; stomach, 5 MBq per mouse): 1.45 ± 0.28 %ID/g
tissue uptake at 2 h ([1]; stomach, 5 MBq per mouse): 1.26 ± 0.22 %ID/g
tissue uptake at 5 h ([1]; stomach, 5 MBq per mouse): 1.24 ± 0.09 %ID/g
PET/CT distribution of radioactivity (in words) [2]: accumulated solely in tumors and kidneys
SMILES: C[C@@H](O)[C@@H]1NC(=O)[C@H](CCCCN)NC(=O)[C@@H](Cc2c[nH]c3ccccc23)NC(=O)[C@H](Cc2cccc3ccccc23)NC(=O)[C@@H](NC(=O)[C@@H](Cc2ccccc2)NC(=O)CCC(C(=O)O)N2CCN(CC(=O)O)CCN(CC(=O)O)CC2)CSSC[C@@H](C(=O)N[C@H](CO)[C@@H](C)O)NC1=O (some centres unmarked) [^44Sc-NODAGA-NOC, metal not drawn]
